Assay results as given in ChEMBL document CHEMBL5230159, “Targeting Metalloenzymes by Boron-Containing Metal-Binding Pharmacophores” (J Med Chem, 2021).
Values belong to the molecule of their own block, whether it stands above or below them.

Assays:
[1] = biological target: T1, 3',5'-cyclic-AMP phosphodiesterase 4B (Homo sapiens, UniProt Q07343); assay: Inhibition of human PDE4 catalytic domain expressed in Escherichia coli
[2] = biological target: T2, Arginase-1 (Rattus norvegicus, UniProt P07824); assay: Binding affinity to rat Arg I
T2 sequence (P07824 whole entry): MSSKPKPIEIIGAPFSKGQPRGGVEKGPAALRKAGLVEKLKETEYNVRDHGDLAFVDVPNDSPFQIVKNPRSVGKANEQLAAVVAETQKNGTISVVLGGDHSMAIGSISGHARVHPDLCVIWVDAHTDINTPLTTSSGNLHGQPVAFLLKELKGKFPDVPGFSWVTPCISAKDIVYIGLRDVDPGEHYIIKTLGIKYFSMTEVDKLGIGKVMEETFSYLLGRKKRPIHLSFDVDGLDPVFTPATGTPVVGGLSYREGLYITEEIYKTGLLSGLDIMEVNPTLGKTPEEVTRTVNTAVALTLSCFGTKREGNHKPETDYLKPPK

[3] = biological target: T1, 3',5'-cyclic-AMP phosphodiesterase 4B; assay: Inhibition of human PDE4 catalytic domain expressed in Escherichia coli at 10 uM relative to control
[4] = biological target: T3, Autotaxin (Homo sapiens, UniProt Q13822); assay: Inhibition of human recombinant ATX
[5] = biological target: Carbonic anhydrase 1 (Homo sapiens, UniProt P00915); assay: Binding affinity to human CA1 assessed as inhibition constant
Sequence of Carbonic anhydrase 1 (P00915 whole entry): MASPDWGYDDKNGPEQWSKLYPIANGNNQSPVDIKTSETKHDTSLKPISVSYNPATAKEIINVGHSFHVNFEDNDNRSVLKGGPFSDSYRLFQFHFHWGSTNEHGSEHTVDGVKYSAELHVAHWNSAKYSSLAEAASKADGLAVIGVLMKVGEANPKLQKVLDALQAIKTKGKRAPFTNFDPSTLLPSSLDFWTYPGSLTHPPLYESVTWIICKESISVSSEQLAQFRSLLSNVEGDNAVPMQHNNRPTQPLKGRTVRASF

[6] = biological target: Carbonic anhydrase 9 (Homo sapiens, UniProt Q16790); assay: Binding affinity to human CA9 assessed as inhibition constant
[7] = biological target: Carbonic anhydrase 12 (Homo sapiens, UniProt O43570); assay: Binding affinity to human CA12 assessed as inhibition constant
Sequence of Carbonic anhydrase 12 (O43570 whole entry): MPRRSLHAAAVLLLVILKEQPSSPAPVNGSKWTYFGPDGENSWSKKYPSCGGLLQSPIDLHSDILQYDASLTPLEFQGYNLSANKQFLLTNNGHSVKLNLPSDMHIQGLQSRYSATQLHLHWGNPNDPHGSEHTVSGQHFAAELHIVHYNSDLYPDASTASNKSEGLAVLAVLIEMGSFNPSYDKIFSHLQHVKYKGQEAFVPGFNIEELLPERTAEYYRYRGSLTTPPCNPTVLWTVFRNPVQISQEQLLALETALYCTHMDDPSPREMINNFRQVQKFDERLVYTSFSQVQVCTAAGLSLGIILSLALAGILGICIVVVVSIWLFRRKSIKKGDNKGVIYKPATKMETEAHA

[8] = Clearance in C57BL/6 mouse at 25 to 50 mg/kg, po by LC-MS/MS analysis; format: ADME, organism-based; conditions: in vivo, dose 25-50 mg/kg
[9] = Oral bioavailability in C57BL/6 mouse at 25 to 50 mg/kg by LC-MS/MS analysis; format: ADME, organism-based; conditions: in vivo, dose 25-50 mg/kg
[10] = biological target: BlaVIM-1 (Escherichia coli, UniProt Q8GDC1); assay: Inhibition of Escherichia coli VIM-1
[11] = Inhibition of Escherichia coli IMP-1
[12] = Inhibition of Escherichia coli VIM-2
[13] = Inhibition of Escherichia coli NDM-1
[14] = Inhibition of beta-lactamase TEM-1 (unknown origin); set-up: species or system Bacteria
[15] = biological target: T2, Arginase-1; assay: Inhibition of rat liver arginase using L-arginine as substrate incubated for 10 mins followed by substrate addition by scintillation counting analysis; format: tissue-based
[16] = biological target: T4, Arginase-1 (Homo sapiens, UniProt P05089); assay: Binding affinity to human Arg I
T4 sequence (P05089 whole entry): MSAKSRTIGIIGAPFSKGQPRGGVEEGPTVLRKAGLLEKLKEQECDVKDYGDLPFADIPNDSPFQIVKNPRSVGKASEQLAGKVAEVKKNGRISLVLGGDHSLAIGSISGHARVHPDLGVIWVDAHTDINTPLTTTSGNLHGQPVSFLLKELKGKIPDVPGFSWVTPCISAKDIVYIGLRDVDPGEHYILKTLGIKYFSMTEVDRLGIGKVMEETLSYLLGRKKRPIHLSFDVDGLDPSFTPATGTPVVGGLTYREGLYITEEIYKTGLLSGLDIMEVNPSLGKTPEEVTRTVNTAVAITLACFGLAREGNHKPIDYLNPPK

[17] = biological target: T4, Arginase-1; assay: Inhibition of human Arg I
[18] = biological target: T5, Arginase-2, mitochondrial (Homo sapiens, UniProt P78540); assay: Binding affinity to human Arg II
T5 sequence (P78540 whole entry): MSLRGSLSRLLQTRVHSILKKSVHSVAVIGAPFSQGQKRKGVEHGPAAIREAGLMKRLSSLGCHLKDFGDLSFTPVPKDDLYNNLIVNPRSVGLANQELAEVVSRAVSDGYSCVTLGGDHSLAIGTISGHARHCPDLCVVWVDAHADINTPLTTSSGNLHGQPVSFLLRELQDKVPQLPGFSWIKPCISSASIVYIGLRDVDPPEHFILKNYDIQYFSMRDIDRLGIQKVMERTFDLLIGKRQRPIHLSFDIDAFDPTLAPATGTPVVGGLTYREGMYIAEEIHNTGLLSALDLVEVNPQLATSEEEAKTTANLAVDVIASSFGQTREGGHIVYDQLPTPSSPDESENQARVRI

[19] = biological target: T3, Autotaxin; assay: Inhibition of human recombinant ATX using ABTS as substrate by absorbance based analysis

T1 sequence (Q07343 whole entry, the tested form may be a part): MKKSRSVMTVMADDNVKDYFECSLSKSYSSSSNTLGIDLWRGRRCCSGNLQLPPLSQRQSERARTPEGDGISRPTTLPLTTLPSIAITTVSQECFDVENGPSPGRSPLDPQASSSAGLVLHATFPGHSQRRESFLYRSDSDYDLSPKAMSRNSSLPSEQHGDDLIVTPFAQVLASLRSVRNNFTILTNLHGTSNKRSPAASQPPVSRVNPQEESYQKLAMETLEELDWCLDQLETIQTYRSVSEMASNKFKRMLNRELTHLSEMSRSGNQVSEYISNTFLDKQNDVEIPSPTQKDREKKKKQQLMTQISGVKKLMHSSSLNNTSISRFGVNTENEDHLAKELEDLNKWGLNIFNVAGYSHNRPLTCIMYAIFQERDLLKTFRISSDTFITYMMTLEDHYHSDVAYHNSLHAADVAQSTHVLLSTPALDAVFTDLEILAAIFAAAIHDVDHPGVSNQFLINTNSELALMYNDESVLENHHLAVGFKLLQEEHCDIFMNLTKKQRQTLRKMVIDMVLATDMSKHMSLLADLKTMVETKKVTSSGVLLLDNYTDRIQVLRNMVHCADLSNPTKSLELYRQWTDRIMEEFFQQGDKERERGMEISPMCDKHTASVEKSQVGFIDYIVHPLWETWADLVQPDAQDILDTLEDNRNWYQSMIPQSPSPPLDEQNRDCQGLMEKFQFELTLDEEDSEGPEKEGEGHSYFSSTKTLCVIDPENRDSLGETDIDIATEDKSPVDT

SMILES: CC(=O)OCCOc1cc(Oc2ccc3c(c2)COB3O)ccc1C#N
- IC50 [1]: 0.0007 µM

SMILES: N#Cc1ccc(Oc2ccc3c(c2)COB3O)cc1OCCO
- IC50 [1]: 0.024 µM

SMILES: COc1ccc(C)cc1NC(=O)Nc1ccc2c(c1)B(O)OC2
- Ki [5]: 0.098 µM
- Ki [6]: 0.414 µM
- Ki [7]: 0.069 µM

SMILES: C[C@H](N)C(=O)N1C[C@H](CCCB(O)O)[C@](N)(C(=O)O)C1
- CL/F [8]: 10 mL/min/kg
- bioavailability [9]: 91%

SMILES: NC(CCCCC(=O)O)C(=O)O (stereo not drawn)
- Kd [2]: 30000 µM

SMILES: CC(=O)N[C@H]1Cc2cccc(C(=O)O)c2OB1O
- IC50 [14]: 0.013 µM

SMILES: OB1OCc2ccc(NC(=S)Nc3ccc(C(F)(F)F)cc3)cc21
- Ki [6]: 0.093 µM
- Ki [7]: 0.071 µM

SMILES: N[C@@H](CCCCB(O)O)C(=O)O
- IC50 [17]: 1.45 µM

SMILES: CCOC(=O)c1ccc(Oc2ccc3c(c2)COB3O)nc1
- IC50 [1]: 0.047 µM

SMILES: N[C@@H](CC/C=C/B(O)O)C(=O)O
- IC50 [15]: 15 µM

The next lines start with the values.

- Ki [2]: 60 µM
SMILES: N[C@@H](CCCCC=O)C(=O)O

- IC50 [1]: > 0.01 µM
- inhibition [3]: 5%
SMILES: O=C(O)c1ccc(Oc2ccc3c(c2)COB3O)nc1

- IC50 [1]: 0.00012 µM
SMILES: CCOc1nc(-c2cncc(C3COB(O)C3)c2)c(F)cc1OC (stereo not drawn)

- IC50 [1]: 0.18 µM
SMILES: N#Cc1ccc(Oc2ccc3c(c2)COB3O)nc1

- IC50 [4]: 0.025 µM
SMILES: O=C1N=C(N2CCN(Cc3ccc(C(=O)O)cc3)CC2)S/C1=C\c1ccc(Cl)c(Cl)c1

- IC50 [10]: 0.0079 µM
- IC50 [11]: 2.5 µM
- IC50 [12]: 0.0005 µM
- IC50 [13]: 0.01 µM
SMILES: NCCN[C@H]1CC[C@H](CC(=O)N[C@H]2Cc3cccc(C(=O)O)c3OB2O)CC1

- IC50 [15]: 6000 µM
SMILES: NC(Cc1ccc(B(O)O)cc1)C(=O)O (stereo not drawn)

- Kd [16]: 60 µM
SMILES: N[C@@H](CCCC[N+](=O)[O-])C(=O)O

- Ki [16]: 30000 µM
SMILES: Nc1nccn1CCC[C@H](N)C(=O)O

- IC50 [1]: 0.11 µM
SMILES: N#Cc1ccc(Oc2ccc3c(c2)COB3O)cc1 [CRISABOROLE]

- Ki [18]: 0.089 µM
SMILES: OB(O)/C=C/Cc1ccccc1

- IC50 [19]: > 0.005 µM
SMILES: O=C1S/C(=C\c2ccc(OCc3ccccc3B(O)O)cc2)C(=O)N1Cc1ccc(F)cc1

- IC50 [12]: 0.051 µM
- IC50 [13]: 2.04 µM
SMILES: O=C(O)c1cccc2c1OB(O)[C@@H](NC(=O)C1CCCCC1)C2

- IC50 [1]: 0.06 µM
SMILES: N#Cc1ccc(Oc2ccc3c(c2)COB3O)cc1C#N
